Earlier results on 1 compound are cited in patent publication US9387169B2, “Rapamycin powders for pulmonary delivery” (Civitas Therapeutics, Inc., priority 2014, dated 2016).

For the series the following is noted: amorphous form.

Each structure is given as a SMILES string.

Regarding `CO[C@H]1C[C@@H]2CC[C@@H](C)[C@@](O)(O2)C(=O)C(=O)N2CCCC[C@H]2C(=O)O[C@H]([C@H](C)C[C@@H]2CC[C@@H](O)[C@H](OC)C2)CC(=O)[C@H](C)/C=C(\C)[C@@H](O)[C@@H](OC)C(=O)[C@H](C)C[C@H](C)/C=C/C=C/C=C/1C` [amorphous rapamycin, rapamycin], the chemical stability entry is on record as “extremely chemically unstable”.
